Reference: ChEMBL document CHEMBL5634161, “Discovery of benzamide-based PI3K/HDAC dual inhibitors with marked pro-apoptosis activity in lymphoma cells” (Eur J Med Chem, 2023)
Activity calls are given as the source filed them. The calls are words filed in the database; no cut-off is given here.

Legend:
[1] = target: Phosphatidylinositol 4,5-bisphosphate 3-kinase catalytic subunit alpha isoform (Homo sapiens, UniProt P42336); experiment: Inhibition of PI3Kalpha (unknown origin) using PIP2 as substrate incubated for 1 hrs in presence of ATP by ADP-Glo kinase assay
[2] = target: Histone deacetylase 3 (Homo sapiens, UniProt O15379); experiment: Inhibition of HDAC3 (unknown origin) using Boc-Lys(acetyl)-AMC as substrate preincubated for 1 hrs followed by substrate addition and measured after 2 hrs by spectrophotometer based fluorometric assay
[3] = target: Histone deacetylase 2 (Homo sapiens, UniProt Q92769); experiment: Inhibition of HDAC2 (unknown origin) using Boc-Lys(acetyl)-AMC as substrate preincubated for 1 hrs followed by substrate addition and measured after 2 hrs by spectrophotometer based fluorometric assay
[4] = target: Histone deacetylase 1 (Homo sapiens, UniProt Q13547); experiment: Inhibition of HDAC1 (unknown origin) using Boc-Lys(acetyl)-AMC as substrate preincubated for 1 hrs followed by substrate addition and measured after 2 hrs by spectrophotometer based fluorometric assay
[5] = tested on: JeKo-1; experiment: Induction of apoptosis in human JeKo-1 cells assessed as viable cells at 0.25 uM incubated for 48 hrs by Annexin-V/FITC and PI staining based flow cytometric analysis (reference value: 94.1%); format: functional; details: read-out: Activity
[6] = tested on: JeKo-1; experiment: Induction of apoptosis in human JeKo-1 cells assessed as late apoptotic cells at 1 uM incubated for 48 hrs by Annexin-V/FITC and PI staining based flow cytometric analysis (reference value: 3.66%); format: functional
[7] = tested on: JeKo-1; experiment: Induction of apoptosis in human JeKo-1 cells assessed as necrotic cells at 1 uM incubated for 48 hrs by Annexin-V/FITC and PI staining based flow cytometric analysis (reference value: 1.05%); format: functional
[8] = Cytotoxicity against human HL7702 cells incubated for 48 hrs by resazurin dye based fluorescence micro plate reader analysis; format: toxicity, cell-based; details: HL7702 (L02) cells
[9] = tested on: HL-60; experiment: Antiproliferative activity against human HL-60 cells incubated for 48 hrs by resazurin dye based fluorescence micro plate reader analysis; format: functional, cell-based; details: HL-60, 48 h
[10] = tested on: MDA-MB-231; experiment: Antiproliferative activity against human MDA-MB-231 cells incubated for 48 hrs by resazurin dye based fluorescence micro plate reader analysis; format: functional, cell-based; details: MDA-MB-231, 48 h
[11] = tested on: JeKo-1; experiment: Antiproliferative activity against human JeKo-1 cells incubated for 48 hrs by resazurin dye based fluorescence micro plate reader analysis; format: functional, cell-based; details: JeKo-1, 48 h
[12] = tested on: JeKo-1; experiment: Induction of apoptosis in human JeKo-1 cells assessed as necrotic cells at 0.25 uM incubated for 48 hrs by Annexin-V/FITC and PI staining based flow cytometric analysis (reference value: 1.05%); format: functional
[13] = tested on: JeKo-1; experiment: Induction of apoptosis in human JeKo-1 cells assessed as necrotic cells at 0.5 uM incubated for 48 hrs by Annexin-V/FITC and PI staining based flow cytometric analysis (reference value: 1.05%); format: functional
[14] = tested on: MM1.S; experiment: Antiproliferative activity against human MM1.S cells incubated for 48 hrs by resazurin dye based fluorescence micro plate reader analysis; format: functional, cell-based
[15] = Inhibition of PI3K/AKT/mTOR signaling in human JeKo-1 cells assessed as decrease in AKT phosphorylation at S473 residue at 0.25 uM incubated for 24 hrs by Western blot analysis; format: cell-based
[16] = tested on: JeKo-1; experiment: Induction of apoptosis in human JeKo-1 cells assessed as viable cells at 0.5 uM incubated for 48 hrs by Annexin-V/FITC and PI staining based flow cytometric analysis (reference value: 94.1%); format: functional; details: read-out: Activity
[17] = tested on: JeKo-1; experiment: Effect on total AKT protein level in human JeKo-1 cells at 0.25 uM incubated for 24 hrs by Western blot analysis; format: functional, cell-based
[18] = tested on: JeKo-1; experiment: Induction of apoptosis in human JeKo-1 cells assessed as viable cells at 1 uM incubated for 48 hrs by Annexin-V/FITC and PI staining based flow cytometric analysis (reference value: 94.1%); format: functional; details: read-out: Activity
[19] = tested on: JeKo-1; experiment: Induction of apoptosis in human JeKo-1 cells assessed as late apoptotic cells at 0.25 uM incubated for 48 hrs by Annexin-V/FITC and PI staining based flow cytometric analysis (reference value: 3.66%); format: functional
[20] = tested on: JeKo-1; experiment: Potentiation of CI994-induced apoptosis in human JeKo-1 cells; format: functional, cell-based
[21] = tested on: JeKo-1; experiment: Induction of apoptosis in human JeKo-1 cells assessed as late apoptotic cells at 0.5 uM incubated for 48 hrs by Annexin-V/FITC and PI staining based flow cytometric analysis (reference value: 3.66%); format: functional

Histone deacetylase 3, sequence (O15379 whole entry): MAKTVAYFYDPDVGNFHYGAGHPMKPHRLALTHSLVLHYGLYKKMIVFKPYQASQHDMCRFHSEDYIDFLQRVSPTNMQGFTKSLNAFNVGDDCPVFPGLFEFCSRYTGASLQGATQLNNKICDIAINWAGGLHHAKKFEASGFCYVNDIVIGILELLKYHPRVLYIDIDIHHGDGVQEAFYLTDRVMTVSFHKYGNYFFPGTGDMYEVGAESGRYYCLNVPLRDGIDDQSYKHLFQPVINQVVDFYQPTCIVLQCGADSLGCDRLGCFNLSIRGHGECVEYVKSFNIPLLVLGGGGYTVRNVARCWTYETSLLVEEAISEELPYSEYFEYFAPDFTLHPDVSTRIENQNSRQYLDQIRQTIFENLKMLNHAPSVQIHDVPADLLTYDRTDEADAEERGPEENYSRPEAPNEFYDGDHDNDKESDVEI
Phosphatidylinositol 4,5-bisphosphate 3-kinase catalytic subunit alpha isoform, sequence (P42336 whole entry, canonical isoform): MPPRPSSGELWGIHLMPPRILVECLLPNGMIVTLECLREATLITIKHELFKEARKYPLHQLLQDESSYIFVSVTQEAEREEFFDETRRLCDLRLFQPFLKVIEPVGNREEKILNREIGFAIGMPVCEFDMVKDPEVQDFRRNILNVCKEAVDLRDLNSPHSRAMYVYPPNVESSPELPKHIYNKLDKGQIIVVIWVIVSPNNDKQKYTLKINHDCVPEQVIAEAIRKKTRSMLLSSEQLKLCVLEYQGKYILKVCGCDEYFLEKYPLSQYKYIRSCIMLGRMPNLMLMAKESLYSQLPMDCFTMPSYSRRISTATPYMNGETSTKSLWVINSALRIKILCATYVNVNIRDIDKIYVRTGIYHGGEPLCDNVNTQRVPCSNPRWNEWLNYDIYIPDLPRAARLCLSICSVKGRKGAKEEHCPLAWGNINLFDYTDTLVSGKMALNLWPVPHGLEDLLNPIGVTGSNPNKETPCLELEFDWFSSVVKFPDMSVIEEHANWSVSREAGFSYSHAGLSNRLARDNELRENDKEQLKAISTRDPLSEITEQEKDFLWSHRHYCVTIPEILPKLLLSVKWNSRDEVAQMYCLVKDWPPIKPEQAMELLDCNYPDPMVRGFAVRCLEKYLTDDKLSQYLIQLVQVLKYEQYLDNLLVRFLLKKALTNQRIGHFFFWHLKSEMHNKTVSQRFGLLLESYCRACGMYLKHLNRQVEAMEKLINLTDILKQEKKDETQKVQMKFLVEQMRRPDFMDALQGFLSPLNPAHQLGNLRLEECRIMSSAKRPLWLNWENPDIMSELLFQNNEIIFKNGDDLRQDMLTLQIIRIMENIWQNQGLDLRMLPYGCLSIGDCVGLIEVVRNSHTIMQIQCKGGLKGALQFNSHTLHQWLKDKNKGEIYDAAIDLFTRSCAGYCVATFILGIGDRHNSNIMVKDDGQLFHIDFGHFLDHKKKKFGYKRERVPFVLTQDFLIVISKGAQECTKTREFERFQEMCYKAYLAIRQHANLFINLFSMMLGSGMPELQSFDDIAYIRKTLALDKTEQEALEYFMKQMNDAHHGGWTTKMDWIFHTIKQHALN
Histone deacetylase 2, sequence (Q92769 whole entry): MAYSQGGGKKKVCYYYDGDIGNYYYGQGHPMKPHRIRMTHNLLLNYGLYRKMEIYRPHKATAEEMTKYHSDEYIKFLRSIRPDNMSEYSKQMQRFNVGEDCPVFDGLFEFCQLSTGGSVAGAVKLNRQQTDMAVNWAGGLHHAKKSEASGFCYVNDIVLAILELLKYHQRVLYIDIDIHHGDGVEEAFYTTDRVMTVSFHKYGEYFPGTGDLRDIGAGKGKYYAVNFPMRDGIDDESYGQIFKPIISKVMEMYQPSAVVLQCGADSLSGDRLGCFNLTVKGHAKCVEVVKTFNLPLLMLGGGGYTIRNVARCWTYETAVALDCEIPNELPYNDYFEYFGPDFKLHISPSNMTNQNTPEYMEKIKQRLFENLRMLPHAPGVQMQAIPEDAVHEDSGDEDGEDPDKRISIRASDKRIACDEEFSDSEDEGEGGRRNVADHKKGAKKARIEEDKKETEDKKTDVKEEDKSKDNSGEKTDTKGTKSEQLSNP
Histone deacetylase 1, sequence (Q13547 whole entry): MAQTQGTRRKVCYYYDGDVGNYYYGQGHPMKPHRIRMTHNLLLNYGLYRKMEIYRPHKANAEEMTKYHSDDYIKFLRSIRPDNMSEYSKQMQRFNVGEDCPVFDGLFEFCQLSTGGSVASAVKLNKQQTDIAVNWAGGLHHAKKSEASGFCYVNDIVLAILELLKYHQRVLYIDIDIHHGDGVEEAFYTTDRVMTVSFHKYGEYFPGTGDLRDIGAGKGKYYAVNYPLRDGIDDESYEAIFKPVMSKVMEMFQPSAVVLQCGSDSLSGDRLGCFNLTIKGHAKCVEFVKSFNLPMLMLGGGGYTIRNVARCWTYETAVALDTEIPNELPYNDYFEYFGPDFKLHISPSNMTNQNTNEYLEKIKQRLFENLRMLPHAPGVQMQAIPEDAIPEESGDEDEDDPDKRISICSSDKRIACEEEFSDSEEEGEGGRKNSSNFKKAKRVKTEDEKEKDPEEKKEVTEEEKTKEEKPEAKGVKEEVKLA

Row | Compound | IC50 [1] | IC50 [2] | IC50 [3] | IC50 [4] | other results
1 | Nc1ccccc1NC(=O)CNC(=O)c1ccc(NC(=O)Nc2ccc(-c3nc(N4CCOCC4)nc(N4CCOCC4)n3)cc2)cc1 | 37.7 nM | > 10000 nM | > 10000 nM | 1950 nM | –
2 | Nc1c(NC(=O)c2ccc(NC(=O)Nc3ccc(-c4nc(N5CCOCC5)nc(N5CCOCC5)n4)cc3)cc2)ccc(F)c1F | 14.3 nM | 1410 nM | > 10000 nM | > 10000 nM | –
3 | COc1nc(-c2ccc(NC(=O)Nc3ccc(C(=O)Nc4ccccc4N)cc3)cc2)nc(N2CCOCC2)n1 | 11.2 nM | 334 nM | > 10000 nM | > 10000 nM | –
4 | CNCCNC(=O)c1ccc(NC(=O)Nc2ccc(-c3nc(OC)nc(N4CCOCC4)n3)cc2)cc1 | 2.4 nM | – | – | – | viability at 0.25 µM [5]: 93.9%; Activity [6]: 8.29%; Activity [7]: 0.4%; IC50 at 48 h [8]: > 100000 nM; IC50 [9]: 3100 nM; IC50 [10]: 4200 nM; IC50 [11]: 1100 nM; Activity [12]: 0.73%; Activity [13]: 0.41%; IC50 [14]: 3300 nM; inhibition [15]: Active; viability at 0.5 µM [16]: 94.8%; Activity [17]: inactive; viability at 1 µM [18]: 91.5%; Activity [19]: 4.5%; Activity [20]: Active; Activity [21]: 3.51%
5 | Nc1ccccc1NC(=O)CCCCCCCNC(=O)c1ccc(NC(=O)Nc2ccc(-c3nc(N4CCOCC4)nc(N4CCOCC4)n3)cc2)cc1 | 75.7 nM | 210 nM | 490 nM | 345 nM | –
6 | COc1nc(-c2ccc(NC(=O)Nc3ccc(C(=O)NCCCCCCC(=O)Nc4ccccc4N)cc3)cc2)nc(N2CCOCC2)n1 | 88.3 nM | 24.6 nM | 459 nM | 336 nM | –

The remaining molecules from weak to strong by IC50 [1], led by results:

Row | IC50 [1] | IC50 [2] | IC50 [3] | IC50 [4] | Compound | other results
7 | 17 nM | 499 nM | > 10000 nM | > 10000 nM | Nc1cc(F)ccc1NC(=O)c1ccc(NC(=O)Nc2ccc(-c3nc(N4CCOCC4)nc(N4CCOCC4)n3)cc2)cc1 | –
8 | 13.3 nM | > 10000 nM | > 10000 nM | > 10000 nM | Nc1ccccc1NC(=O)CCCCNC(=O)c1ccc(NC(=O)Nc2ccc(-c3nc(N4CCOCC4)nc(N4CCOCC4)n3)cc2)cc1 | –
9 | 4.5 nM | 17.7 nM | 128 nM | 81.5 nM | Nc1ccccc1NC(=O)CCCCCNC(=O)c1ccc(NC(=O)Nc2ccc(-c3nc(OC4COC4)nc(N4CCOCC4)n3)cc2)cc1 | –
10 | 2.4 nM | > 10000 nM | > 10000 nM | > 10000 nM | Nc1ccccc1NC(=O)c1ccc(NC(=O)Nc2ccc(-c3nc(OC4COC4)nc(N4CCOCC4)n3)cc2)cc1 | –
